Results from paper PMC2033546, “Effects of somatostatin analogue RC-160 and bombesin/gastrin-releasing peptide antagonists on the growth of human small-cell and non-small-cell lung carcinomas in nude mice” (British Journal of Cancer, 1994).
Where no end group is shown, it is not given here.

What was measured:
EGF receptors = conditions: various cancer lines and cancer specimens; ref Liebow et al., 1992; cited from earlier work
Description: Br. J. Cancer (1994). 70, 886 892 ? Macmillan Press Ltd..

human SCLC cell line H69 = test: [3H]Thymidine incorporation assay in H69 cells; type: cell-based; conditions: 3 days; for [3H]thymidine incorporation into DNA of H69 cells (in words): RC-160 0.001 to 10.0 µg/ml, 5 days, RC-3005 or RC-3009 5.0 and 25.0 µg/ml; for [3H]Thymidine incorporation: Table V, mean s.e.
Description: (§1) Br. J. Cancer (1994). 70, 886 892 ? Macmillan Press Ltd.. […] Bombesin GRP antagonists. […] Lung carcinoma is the leading cause of cancer-related deaths in the western world. It is estimated that in 1992 there were approximately 168,000 new cases of lung cancer in the US and that about 146,000 deaths occurred from this disease (Boring et al., 1992). […] The growth factors such as bombesin/gastrin-releasing pep- tide (GRP), epidermal growth factor, (EGF), transforming growth factor a (TGF-x) and insulin-like growth factor I(IGF-I) appear to play a role in the proliferation and pro- gression of lung cancer (Cuttitta et al., 1985; Veale et al., 1987; Minuto et al., 1988; Siegfried & Owens, 1988; Macaulay et al., 1990; Tateishi et al., 1991; Damstrup et al., 1992; Sethi & Rozengurt, 1992; Rabiasz et al., 1992; Moody & Cuttitta, 1993). […] Tpi is 2,3,4,9-tetrahydro- Correspondence: A.V. Schally (151). VA Medical Center, 1601 Per- dido Street. New Orleans, LA 70146. USA. Received 1 March 1994; and in revised form 5 July 1994. Br. J. Cancer (1994), 70, 886-892 C Macmillan Press Ltd., 1994 PEPTIDE ANALOGUES IN LUNG CANCER 8U7 lH-pyrido [3,4bjindol-3-carboxylic acid, a conformationally constrained secondary amine derivate of tryptophan and Tac is thiazolidine-4-carboxylic acid. […] Animals Male athymic NCr nulmu nude mice, approximately 6 weeks old on arrival, were obtained from the NCI (Bethesda, MD, USA) and maintained under pathogen-limited conditions. Cell lines The human SCLC cell line NCI-H69, was obtained from the American Type Cell Culture (ATCC), Rockville, MD, USA and the non-SCLC cell line NCI-H157, from Dr H. Oie, NCI-Navy Medical Oncology Branch, Bethesda, MD, USA. These cell lines were cultured in RPMI-1640 medium supple- mented with 4 mM L-glutamine, 50 units ml-I penicilln G sodium, SOigml-' streptomycin sulphate, 0.125pgml-' amphotericin B and 10% fetal bovine serum at 3TC in a humidified 95% air/5% carbon dioxide atmosphere. CeLs were passaged weekly and routinely monitored for myco- plasma contamination using a detection kit (Boehringer- Mannheim, Mannheim, Germany). All culture media com- ponents were purchased from Gibco (Grand Island, NY, USA). Receptor assays Preparation of membranes for receptor studies was described previously (Halmos et al., 1993). Iodinated EGF and IGF-I were purchased from Amersham (Arlington Heights, IL, USA). Radioiodination of other peptides and receptor bind- ing of EGF, IGF-I, somatostatin and bombesin/GRP were performed as previously described (Srkalovic et al., 1989; Szepeshazi et al., 1992). Complete displacement assays on tumour membranes were done only once because of the shortage of tumour material. The LIGAND PC computerised curve-fitting programme of Munson and Rodbard (1980) was used to determine the types of receptor binding, dissociation constant (Kd) values, and the maximal binding capacity (BDj) of receptors. In order to determine the specificity of the binding sites for radiolabelled EGF, IGF-I, somatostatin and bombesin to lung cancer membranes, various structuraly related and unrelated peptides were tested for their ability to inhibit the binding of the tracers. Histological procedure The histological procedures were the same as described previously (Szepeshazi et al., 1991, 1992). The number of mitotic and apoptotic cells per 1,000 cells was determined, and the percentage area of necrosis in tumour sections was examined using the point-counting method (Szepeshazi et al., 1991, 1992), in which the crossing points of an ocular net that coincide with necrosis in various sections are counted. Radiommunoassays Serum levels of growth hormone were determined by double- antibody radioimmunoassay (RIA) using materials supplied by the National Hormone and Pituitary Program of the National Institute of Diabetes and Digestive and Kidney Diseases (NIDDK).

[1] = system: human SCLC cell line NCI-H69; test: Growth of H69 SCLC xenografts in nude mice; type: in vivo, human (xenograft in male athymic nude mice)
Description: as §1

[2] = Body weight of tumour-bearing nude mice; conditions: Table I, Experiment I (SCLC-H69), end of experiment; control 26.3 ? 2.3; means ? s.d.
Description: Br. J. Cancer (1994). 70, 886 892 ? Macmillan Press Ltd.. […] Bombesin GRP antagonists. […] Lung carcinoma is the leading cause of cancer-related deaths in the western world. It is estimated that in 1992 there were approximately 168,000 new cases of lung cancer in the US and that about 146,000 deaths occurred from this disease (Boring et al., 1992). […] CeLs were passaged weekly and routinely monitored for myco- plasma contamination using a detection kit (Boehringer- Mannheim, Mannheim, Germany). […] The number of mitotic and apoptotic cells per 1,000 cells was determined, and the percentage area of necrosis in tumour sections was examined using the point-counting method (Szepeshazi et al., 1991, 1992), in which the crossing points of an ocular net that coincide with necrosis in various sections are counted. Radiommunoassays Serum levels of growth hormone were determined by double- antibody radioimmunoassay (RIA) using materials supplied by the National Hormone and Pituitary Program of the National Institute of Diabetes and Digestive and Kidney Diseases (NIDDK).

[3] = Serum gastrin radioimmunoassay in nude mice; type: in vivo; conditions: Table III, Experiment I (SCLC H-69), after treatment; double-antibody RIA; control 130.0 ? 10.8; means ? s.e.; **P < 0.01 vs control
[4] = system: EGF receptors in membranes of SCLC H69 tumours; test: EGF receptor binding on H69 tumour membranes after in vivo treatment; set-up: species or system human; conditions: Table IV, Experiment I (SCLC-H69); tumour membranes after in vivo treatment; control 278; ten-point displacement in triplicate tubes, done once
Description: as §1, with “In order to determine the specificity of the binding sites for radiolabelled EGF, IGF-I, somatostatin and bombesin to lung cancer membranes, various structuraly related and unrelated peptides were tested for their ability to inhibit the binding of the tracers. Histological procedure The histological procedures were the same as described previously (Szepeshazi et al., 1991, 1992).” left out

[5] = system: IGF-I receptors in membranes of SCLC H69 tumours; test: IGF-I receptor binding on H69 tumour membranes after in vivo treatment; set-up: species or system human; conditions: Table IV, Experiment I (SCLC-H69), control 294, done once
Description: as §1, with “Receptor assays Preparation of membranes for receptor studies was described previously (Halmos et al., 1993). Iodinated EGF and IGF-I were purchased from Amersham (Arlington Heights, IL, USA). Radioiodination of other peptides and receptor bind- ing of EGF, IGF-I, somatostatin and bombesin/GRP were performed as previously described (Srkalovic et al., 1989; Szepeshazi et al., 1992). Complete displacement assays on tumour membranes were done only once because of the shortage of tumour material. The LIGAND PC computerised curve-fitting programme of Munson and Rodbard (1980) was used to determine the types of receptor binding, dissociation constant (Kd) values, and the maximal binding capacity (BDj) of receptors. In order to determine the specificity of the binding sites for radiolabelled EGF, IGF-I, somatostatin and bombesin to lung cancer membranes, various structuraly related and unrelated peptides were tested for their ability to inhibit the binding of the tracers. Histological procedure The histological procedures were the same as described previously (Szepeshazi et al., 1991, 1992).” left out

[6] = system: Bombesin/GRP receptors in membranes of SCLC H69 tumours; test: Bombesin/GRP receptor binding on H69 tumour membranes after in vivo treatment; set-up: species or system human
Description: as §1, with “In order to determine the specificity of the binding sites for radiolabelled EGF, IGF-I, somatostatin and bombesin to lung cancer membranes, various structuraly related and unrelated peptides were tested for their ability to inhibit the binding of the tracers. Histological procedure The histological procedures were the same as described previously (Szepeshazi et al., 1991, 1992).” left out

[7] = system: Somatostatin receptors in membranes of SCLC H69 tumours; test: Somatostatin receptor binding on H69 tumour membranes after in vivo treatment; set-up: species or system human; conditions: Table IV, Experiment I (SCLC-H69); tumour membranes after in vivo treatment; control 450; done once
Description: as §1, with “In order to determine the specificity of the binding sites for radiolabelled EGF, IGF-I, somatostatin and bombesin to lung cancer membranes, various structuraly related and unrelated peptides were tested for their ability to inhibit the binding of the tracers. Histological procedure The histological procedures were the same as described previously (Szepeshazi et al., 1991, 1992).” left out

Substance: gastrin-releasing peptide (VPLPAGGGTVLTKMYPRGNHWAVGHLM; ends and bridges not checked; UniProt P07492 24-50, looked up) [GRP]
- Effect on phosphorylation of EGF receptors (in words) (EGF receptors): enhance the phosphorylation of EGF receptors

Substance: His(Bz)2D, D-Trp23, D-Phe2, Leu'- GRP(14-27) [RC-3005]
- [3H]thymidine incorporation into DNA of H69 cells (in words) (human SCLC cell line H69): significantly suppressed
- [3H]Thymidine incorporation (human SCLC cell line H69; 1.0 µg/ml): 100.0 2.0 per cent of control

Substance: [Tpi6, Leu'3*(CH2N)Tpi'4 bombesin (6-16) [RC-3440]
- Tumour volume, final ([1]; Table I, Experiment I (SCLC-H69), 5 weeks s.c. peritumoral, RC-160 100 µg/day, RC-3440, RC-3095, RC-3950-II 20 µg/day per animal, control 249.7 ? 182.3, means ? s.d., ten animals per group, *P<0.05 vs control): 74.1 mm³
- Tumour weight ([1]; Table I, Experiment I (SCLC-H69), 5 weeks s.c. peritumoral, RC-160 100 µg/day, antagonists 20 µg/day per animal, control 0.27 ? 0.19, means ? s.d., *P<0.05 vs control): 0.076 ± 0.04* g
- Tumour doubling time ([1]; Table I, Experiment I (SCLC-H69), 5 weeks, RC-160 100 µg/day, antagonists 20 µg/day per animal s.c., control 7.5): 12.1 days
- Growth of H69 SCLC tumours (in words) ([1]; s.c. peritumorally, RC-160 100 µg, bombesin/GRP antagonists 20 µg per animal per day, 5 weeks): inhibited the growth of H69 SCLC tumours
- Body weight [2]: 26.2 ± 1.3 g
- Serum gastrin [3]: 92.7 8.2 pg ml'
- EGF maximal binding capacity (Bmax) [4]: 134 fmol mg' protein
- IGF-I maximal binding capacity (Bmax) [5]: 255 fmol mg' protein
- Bombesin/GRP maximal binding capacity (Bmax) ([6]; Table IV, Experiment I (SCLC-H69), tumour membranes after in vivo treatment, control 420, done once): 255 fmol mg-'protein
- Concentration of receptors for bombesin/GRP on H69 tumours (in words) ([6]; after in vivo treatment): markedly dereased
- Somatostatin maximal binding capacity (Bmax) [7]: 501 fmol mg-'protein

Substance: D-Trp23, D-Phe5, Leu27- GRP(14-27) [RC-3009]
- [3H]thymidine incorporation into DNA of H69 cells (in words) (human SCLC cell line H69): significantly suppressed
- [3H]Thymidine incorporation (human SCLC cell line H69; 1.0 µg/ml): 98.4 0.8 per cent of control
- [3H]Thymidine incorporation (human SCLC cell line H69; 5.0 µg/ml, *P<0.05 vs control): 92.7 2.0* per cent of control
